Laboratory results taken from patent US9376436B2, “2-(pyridin-2yl)-1, 7-diaza-spiro [4.4] nonane-6-one compound as voltage-gated sodium channels modulators” (CONVERGENCE PHARMACEUTICALS LIMITED, priority 2011, dated 2016).
Counter-ions that a name gives are not always drawn. Like-named read-outs stand apart in the source and are kept apart here.

Target: T1, hNaV1.7 (Homo sapiens, UniProt Q15858)
T1 construct: expressed in transfected cells; host or cells: HEK293
Test: QPatch NaV1.7 assay (whole-cell patch clamp, QPatch16x)
Format: cell-based
Conditions: HEK293-hNaV1.7 cells
Procedure, shortened: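 Automated whole-cell recordings in hNaV1.7-expressing HEK293 cells, holding at either −90 mV (mostly closed channels) or the half-inactivation voltage. Compounds applied cumulatively at four concentrations for 120 s each; peak current on 20 ms depolarisation to 0 mV fitted by Hill equation to yield pIC50.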

[1] = holding voltage V1/2 SSI (half of channels inactivated), read-out: QP Nav1.7 SSI vhalf pIC50 (converted)
[2] = holding voltage −90 mV (most channels closed), read-out: QP Nav1.7 −90 mV pIC50 (converted)

T1 sequence (Q15858 whole entry): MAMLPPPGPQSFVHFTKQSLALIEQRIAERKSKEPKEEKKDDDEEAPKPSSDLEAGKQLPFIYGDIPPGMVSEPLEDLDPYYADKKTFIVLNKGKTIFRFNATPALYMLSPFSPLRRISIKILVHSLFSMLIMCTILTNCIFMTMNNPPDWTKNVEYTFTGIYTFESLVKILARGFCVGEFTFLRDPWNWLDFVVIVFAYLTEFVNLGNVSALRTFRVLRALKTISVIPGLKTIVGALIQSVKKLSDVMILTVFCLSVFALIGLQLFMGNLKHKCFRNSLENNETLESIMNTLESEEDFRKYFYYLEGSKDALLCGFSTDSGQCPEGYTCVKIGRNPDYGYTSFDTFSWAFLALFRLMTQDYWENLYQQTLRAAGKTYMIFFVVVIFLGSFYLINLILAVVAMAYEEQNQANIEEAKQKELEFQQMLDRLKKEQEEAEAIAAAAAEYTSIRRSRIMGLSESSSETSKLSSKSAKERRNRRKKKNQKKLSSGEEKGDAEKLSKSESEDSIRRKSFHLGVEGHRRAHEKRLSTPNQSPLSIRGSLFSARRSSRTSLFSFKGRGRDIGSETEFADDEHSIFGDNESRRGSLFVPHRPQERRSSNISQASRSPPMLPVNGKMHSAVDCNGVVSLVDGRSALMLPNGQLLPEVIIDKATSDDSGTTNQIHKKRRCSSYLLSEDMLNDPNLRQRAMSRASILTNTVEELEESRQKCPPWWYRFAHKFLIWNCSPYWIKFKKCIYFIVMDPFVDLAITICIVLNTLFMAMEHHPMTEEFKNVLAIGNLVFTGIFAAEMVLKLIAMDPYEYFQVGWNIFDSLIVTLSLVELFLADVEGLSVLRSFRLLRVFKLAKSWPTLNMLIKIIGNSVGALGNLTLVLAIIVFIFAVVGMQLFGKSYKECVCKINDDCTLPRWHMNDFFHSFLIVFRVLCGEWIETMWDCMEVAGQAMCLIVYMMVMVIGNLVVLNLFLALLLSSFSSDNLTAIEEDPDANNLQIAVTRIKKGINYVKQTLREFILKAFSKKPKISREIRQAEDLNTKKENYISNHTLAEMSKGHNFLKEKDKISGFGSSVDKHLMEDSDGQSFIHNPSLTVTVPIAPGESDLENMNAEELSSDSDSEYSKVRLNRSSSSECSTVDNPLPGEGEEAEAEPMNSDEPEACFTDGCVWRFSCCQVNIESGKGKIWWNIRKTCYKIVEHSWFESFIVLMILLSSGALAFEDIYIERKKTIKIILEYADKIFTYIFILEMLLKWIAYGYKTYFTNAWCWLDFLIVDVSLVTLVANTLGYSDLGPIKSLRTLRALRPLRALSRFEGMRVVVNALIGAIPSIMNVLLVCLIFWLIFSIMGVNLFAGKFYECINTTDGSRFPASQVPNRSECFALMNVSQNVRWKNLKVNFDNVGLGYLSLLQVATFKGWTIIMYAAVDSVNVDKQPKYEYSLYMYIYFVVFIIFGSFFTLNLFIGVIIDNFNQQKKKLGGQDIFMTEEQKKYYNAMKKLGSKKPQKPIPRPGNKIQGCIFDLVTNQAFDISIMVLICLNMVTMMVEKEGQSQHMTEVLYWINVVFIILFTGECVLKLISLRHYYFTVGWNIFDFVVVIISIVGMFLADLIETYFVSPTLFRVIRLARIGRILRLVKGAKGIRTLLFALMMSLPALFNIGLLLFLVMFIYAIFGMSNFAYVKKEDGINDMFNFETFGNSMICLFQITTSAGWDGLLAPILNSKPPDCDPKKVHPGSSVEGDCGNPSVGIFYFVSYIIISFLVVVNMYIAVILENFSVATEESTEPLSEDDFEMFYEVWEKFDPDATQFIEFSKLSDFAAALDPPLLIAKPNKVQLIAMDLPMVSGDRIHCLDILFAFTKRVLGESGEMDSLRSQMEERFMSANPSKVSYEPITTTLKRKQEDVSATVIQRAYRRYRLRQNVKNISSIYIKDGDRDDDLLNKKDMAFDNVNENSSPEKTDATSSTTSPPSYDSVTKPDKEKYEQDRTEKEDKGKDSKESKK

Structure (SMILES)	IC50 [1]	IC50 [2]
CN1CC[C@@]2(CC[C@H](c3cc(-c4ccc(C5(C#N)CC5)cc4)ccn3)N2)C1=O [Example 171, 1-[4-[2-[(2R,5S)-7-Methyl-6-oxo-1,7-diazaspiro[4.4]nonan-2-yl]-4-pyridyl]phenyl]cyclopropanecarbonitrile hydrochloride]	50.1 µM	158 µM
CN1CC[C@@]2(CC[C@H](c3cc(-c4ccc5c(c4)OC(F)(F)O5)ccn3)N2)C1=O [Example 172, (2R,5S)-2-[4-(2,2-Difluoro-1,3-benzodioxol-5-yl)-2-pyridyl]-7-methyl-1,7-diazaspiro[4.4]nonan-6-one hydrochloride]	31.6 µM	316 µM
CN1CC[C@@]2(CC[C@H](c3cc(-c4cccc(-n5cccn5)c4)ccn3)N2)C1=O [Example 173, (2R,5S)-7-Methyl-2-[4-(3-pyrazol-1-ylphenyl)-2-pyridyl]-1,7-diazaspiro[4.4]nonan-6-one hydrochloride]	12.6 µM	200 µM
Cc1cc(C)cc(-c2ccnc([C@H]3CC[C@@]4(CCN(C)C4=O)N3)c2)c1 [Example 174, (2R,5S)-2-[4-(3,5-Dimethylphenyl)-2-pyridyl]-7-methyl-1,7-diazaspiro[4.4]nonan-6-one hydrochloride]	25.1 µM	126 µM
CCOc1cc(F)c(F)c(-c2ccnc([C@H]3CC[C@@]4(CCN(C)C4=O)N3)c2)c1 [Example 175, (2R,5S)-2-[4-(5-Ethoxy-2,3-difluoro-phenyl)-2-pyridyl]-7-methyl-1,7-diazaspiro[4.4]nonan-6-one hydrochloride]	15.8 µM	200 µM
CN1CC[C@@]2(CC[C@H](c3cc(-c4cc(OC(F)(F)F)ccc4F)ccn3)N2)C1=O [Example 176, (2R,5S)-2-[4-[2-Fluoro-5-(trifluoromethoxy)phenyl]-2-pyridyl]-7-methyl-1,7-diazaspiro[4.4]nonan-6-one hydrochloride]	20 µM	200 µM
CCCOc1ccc(F)c(-c2ccnc([C@H]3CC[C@@]4(CCN(C)C4=O)N3)c2)c1 [Example 177, (2R,5S)-2-[4-(2-Fluoro-5-propoxy-phenyl)-2-pyridyl]-7-methyl-1,7-diazaspiro[4.4]nonan-6-one hydrochloride]	0.398 µM	12.6 µM
CCOc1ccc(C)c(-c2ccnc([C@H]3CC[C@@]4(CCN(C)C4=O)N3)c2)c1 [Example 178, (2R,5S)-2-[4-(5-Ethoxy-2-methyl-phenyl)-2-pyridyl]-7-methyl-1,7-diazaspiro[4.4]nonan-6-one hydrochloride]	25.1 µM	631 µM
CCCOc1cccc(-c2ccnc([C@H]3CC[C@@]4(CCN(C)C4=O)N3)c2)c1 [Example 179, (2R,5S)-7-Methyl-2-[4-(3-propoxyphenyl)-2-pyridyl]-1,7-diazaspiro[4.4]nonan-6-one hydrochloride]	0.794 µM	31.6 µM
CC(C)Oc1ccc(-c2ccnc([C@H]3CC[C@@]4(CCN(C)C4=O)N3)c2)cc1C#N [Example 180, 2-Isopropoxy-5-[2-[(2R,5S)-7-methyl-6-oxo-1,7-diazaspiro[4.4]nonan-2-yl]-4-pyridyl]benzonitrile hydrochloride]	20 µM	1000 µM
CCOc1ccc(Cl)c(-c2ccnc([C@H]3CC[C@@]4(CCN(C)C4=O)N3)c2)c1 [Example 181, (2R,5S)-2-[4-(2-Chloro-5-ethoxy-phenyl)-2-pyridyl]-7-methyl-1,7-diazaspiro[4.4]nonan-6-one hydrochloride]	5.01 µM	100 µM
Cc1ccn(-c2ccc(F)c(-c3ccnc([C@H]4CC[C@@]5(CCN(C)C5=O)N4)c3)c2)n1 [Example 182, (2R,5S)-2-[4-[2-Fluoro-5-(3-methylpyrazol-1-yl)phenyl]-2-pyridyl]-7-methyl-1,7-diazaspiro[4.4]nonan-6-one hydrochloride]	15.8 µM	100 µM
Cc1cnn(-c2ccc(F)c(-c3ccnc([C@H]4CC[C@@]5(CCN(C)C5=O)N4)c3)c2)c1 [Example 183, (2R,5S)-2-[4-[2-Fluoro-5-(4-methylpyrazol-1-yl)phenyl]-2-pyridyl]-7-methyl-1,7-diazaspiro[4.4]nonan-6-one hydrochloride]	3.16 µM	63.1 µM
CN1CC[C@@]2(CC[C@H](c3cc(-c4cc(-n5cccn5)ccc4F)ccn3)N2)C1=O [Example 184, (2R,5S)-2-[4-(2-Fluoro-5-pyrazol-1-yl-phenyl)-2-pyridyl]-7-methyl-1,7-diazaspiro[4.4]nonan-6-one hydrochloride]	10 µM	126 µM
CN1CC[C@@]2(CC[C@H](c3cc(-c4cc(OC5CC5)ccc4F)ccn3)N2)C1=O [Example 185, (2R,5S)-2-[4-[5-(Cyclopropoxy)-2-fluoro-phenyl]-2-pyridyl]-7-methyl-1,7-diazaspiro[4.4]nonan-6-one hydrochloride]	7.94 µM	63.1 µM
CN1CC[C@@]2(CC[C@H](c3cc(-c4cc5[nH]ncc5cc4F)ccn3)N2)C1=O [Example 186, (2R,5S)-2-[4-(5-Fluoro-1H-indazol-6-yl)-2-pyridyl]-7-methyl-1,7-diazaspiro[4.4]nonan-6-one hydrochloride]	158 µM	6310 µM
CN1CC[C@@]2(CC[C@H](c3cc(-c4cccc5[nH]ncc45)ccn3)N2)C1=O [Example 187, (2R,5S)-2-[4-(1H-Indazol-4-yl)-2-pyridyl]-7-methyl-1,7-diazaspiro[4.4]nonan-6-one hydrochloride]	200 µM	1000 µM
COCc1ccc(F)c(-c2ccnc([C@H]3CC[C@@]4(CCN(C)C4=O)N3)c2)c1 [Example 188, (2R,5S)-2-[4-[2-Fluoro-5-(methoxymethyl)phenyl]-2-pyridyl]-7-methyl-1,7-diazaspiro[4.4]nonan-6-one hydrochloride]	100 µM	501 µM
CCOCc1ccc(F)c(-c2ccnc([C@H]3CC[C@@]4(CCN(C)C4=O)N3)c2)c1 [Example 189, (2R,5S)-2-[4-[5-(Ethoxymethyl)-2-fluoro-phenyl]-2-pyridyl]-7-methyl-1,7-diazaspiro[4.4]nonan-6-one hydrochloride]	25.1 µM	251 µM
CCOc1ccc(-c2ccnc([C@H]3CC[C@@]4(CCN(C)C4=O)N3)c2)cc1OCC [Example 190, (2R,5S)-2-[4-(3,4-Diethoxyphenyl)-2-pyridyl]-7-methyl-1,7-diazaspiro[4.4]nonan-6-one hydrochloride]	100 µM	10000 µM
CN1CC[C@@]2(CC[C@H](c3cc(-c4cc(-c5cnn(C)c5)ccc4F)ccn3)N2)C1=O [Example 191, (2R,5S)-2-[4-[2-Fluoro-5-(1-methylpyrazol-4-yl)phenyl]-2-pyridyl]-7-methyl-1,7-diazaspiro[4.4]nonan-6-one hydrochloride]	25.1 µM	398 µM
CN1CC[C@@]2(CC[C@H](c3cc(-c4cc(-c5ccnn5C)ccc4F)ccn3)N2)C1=O [Example 192, (2R,5S)-2-[4-[2-Fluoro-5-(2-methylpyrazol-3-yl)phenyl]-2-pyridyl]-7-methyl-1,7-diazaspiro[4.4]nonan-6-one hydrochloride]	1000 µM	
Cc1ccnn1-c1ccc(F)c(-c2ccnc([C@H]3CC[C@@]4(CCN(C)C4=O)N3)c2)c1 [Example 193, (2R,5S)-2-[4-[2-Fluoro-5-(5-methylpyrazol-1-yl)phenyl]-2-pyridyl]-7-methyl-1,7-diazaspiro[4.4]nonan-6-one hydrochloride]	50.1 µM	5010 µM
CC(C)COc1cc(-c2ccnc([C@H]3CC[C@@]4(CCN(C)C4=O)N3)c2)ccc1F [Example 194, (2R,5S)-2-[4-(4-Fluoro-3-isobutoxy-phenyl)-2-pyridyl]-7-methyl-1,7-diazaspiro[4.4]nonan-6-one hydrochloride]	1 µM	15.8 µM
COc1ccc(F)c(-c2cc(C)nc([C@H]3CC[C@@]4(CCN(C)C4=O)N3)c2)c1 [Example 195, (2R,5S)-2-[4-(2-Fluoro-5-methoxy-phenyl)-6-methyl-2-pyridyl]-7-methyl-1,7-diazaspiro[4.4]nonan-6-one hydrochloride]	5.01 µM	100 µM
CCCOc1ccc(F)c(-c2cc(C)nc([C@H]3CC[C@@]4(CCN(C)C4=O)N3)c2)c1 [Example 196, (2R,5S)-2-[4-(2-Fluoro-5-propoxy-phenyl)-6-methyl-2-pyridyl]-7-methyl-1,7-diazaspiro[4.4]nonan-6-one hydrochloride]	0.1 µM	1.58 µM
CCOc1cc(F)cc(-c2cc(C)nc([C@H]3CC[C@@]4(CCN(C)C4=O)N3)c2)c1 [Example 197, (2R,5S)-2-[4-(3-Ethoxy-5-fluoro-phenyl)-6-methyl-2-pyridyl]-7-methyl-1,7-diazaspiro[4.4]nonan-6-one hydrochloride]	5.01 µM	50.1 µM
Cc1cc(-c2cc(OC(C)C)ccc2F)cc([C@H]2CC[C@@]3(CCN(C)C3=O)N2)n1 [Example 198, (2R,5S)-2-[4-(2-Fluoro-5-isopropoxy-phenyl)-6-methyl-2-pyridyl]-7-methyl-1,7-diazaspiro[4.4]nonan-6-one hydrochloride]	5.01 µM	63.1 µM
CCOc1cccc(-c2cc(C)nc([C@H]3CC[C@@]4(CCN(C)C4=O)N3)c2)c1F [Example 199, (2R,5S)-2-[4-(3-Ethoxy-2-fluoro-phenyl)-6-methyl-2-pyridyl]-7-methyl-1,7-diazaspiro[4.4]nonan-6-one hydrochloride]	25.1 µM	158 µM
Cc1cc(-c2cc(OC(F)(F)F)ccc2F)cc([C@H]2CC[C@@]3(CCN(C)C3=O)N2)n1 [Example 200, (2R,5S)-2-[4-[2-Fluoro-5-(trifluoromethoxy)phenyl]-6-methyl-2-pyridyl]-7-methyl-1,7-diazaspiro[4.4]nonan-6-one hydrochloride]	2 µM	31.6 µM
